Laboratory results: patent US8263620B2, “Oxadiazole derivatives active on sphingosine-1-phosphate (SIP)” (Glaxo Group Limited, priority 2007, dated 2012)
pEC50: −log10 of the molar value. Where a name gives a salt, the structure may show the parent alone.

Columns and labels:
human S1P3 receptor = target: T1, human S1P3 receptor (Homo sapiens, UniProt Q99500); test: S1P3 GTPγS assay; assay type: biochemical; conditions: [35S]-GTPγS SPA, S1P3 RBL-2H3 membranes, agonist
T1 construct: expressed in transfected cells; membranes
Description: For membrane preparations all steps were performed at 4° C. Rat hepatoma cells stably expressing the human S1P1 receptor or Rat Basophilic Leukaemia cells (RBL) stably expressing human S1P3 receptor were grown to 80% confluency before being harvested into 10 ml Phospho-Buffered Saline (PBS) and centrifuged at 1200 rpm for 5 minutes. After removal of the supernatant, the pellet was re-suspended and cells were homogenised within a glass Waring blender for 2 bursts of 15 secs in 200 mls of buffer (50 mM HEPES, 1 mM leupeptin, 25 μg/ml bacitracin, 1 mM EDTA, 1 mM PMSF, 2 μM pepstatin A). The blender was plunged into ice for 5 mins after the first burst and 10-40 mins after the final burst to allow foam to dissipate. The material was then spun at 500 g for 20 mins and the supernatant spun for 36 mins at 48,000 g. The pellet was resuspended in the same buffer as above but without PMSF and pepstatin A. The material was then forced through a 0.6 mm needle, made up to the required volume, (usually ×4 the volume of the original cell pellet), aliquoted and stored frozen at −80° C.
After 30 minutes pre-coupling on ice the bead and membrane suspension was dispensed into a white Greiner polypropylene LV384-well plate (5 μl/well), containing 0.1 μl of the compound. 5 μl/well [^35S]-GTPγS (0.5 nM final radioligand conc) made up in assay buffer was then added to agonist plates. The final assay cocktail (10.1 μl) was centrifuged at 1000 rpm for 5 minutes then read immediately on a Viewlux reader.
All test compounds were dissolved in DMSO at a concentration of 10 mM and were prepared in 100% DMSO using a 1 in 4 dilution step to provide 11 point dose response curves. The dilutions were transferred to the assay plates ensuring that the DMSO concentration was constant across the plate for all assays.
All data was normalized to the mean of 16 high and 16 low control wells on each plate. A four parameter curve fit was then applied.
S1P3 expressing RBL membranes (1.5 μg/well) were homogenised by passing through a 23 G needle. […] GDP 10 μM FAC and saponin 90 μg/ml FAC were also added
After 30 minutes precoupling on ice, the bead and membrane suspension was dispensed into white Greiner polypropylene LV 384-well plates (5 μl/well), containing 0.1 μl of compound. 5 μl/well [^35S]-GTPγS (0.5 nM for S1P1 or 0.3 nM for S1P3 final radioligand concentration) made in assay buffer was then added to the plates. The final assay cocktail (10.1 μl) was then sealed, spun on a centrifuge, then read immediately on a Viewlux instrument.

circulating lymphocytes = conditions: animals and man; cited from earlier work
[1] = clinical studies, first 24 hours of treatment; cited from earlier work

T1 sequence (Q99500 whole entry): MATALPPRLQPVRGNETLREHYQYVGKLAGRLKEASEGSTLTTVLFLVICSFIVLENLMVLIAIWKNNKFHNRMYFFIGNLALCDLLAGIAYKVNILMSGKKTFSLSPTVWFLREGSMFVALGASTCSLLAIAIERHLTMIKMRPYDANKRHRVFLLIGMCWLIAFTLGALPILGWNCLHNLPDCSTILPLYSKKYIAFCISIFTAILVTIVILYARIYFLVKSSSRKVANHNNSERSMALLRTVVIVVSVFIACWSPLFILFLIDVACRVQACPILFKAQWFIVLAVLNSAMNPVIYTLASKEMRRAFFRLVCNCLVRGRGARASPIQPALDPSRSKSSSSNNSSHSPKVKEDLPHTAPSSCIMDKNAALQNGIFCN

Compound | pEC50 (human S1P3 receptor) | effect on circulating lymphocytes (circulating lymphocytes) | bradycardia [1]
Cc1c(-c2noc(-c3ccc(OC(C)C)c(C#N)c3)n2)ccc2c1CCNC2CC(=O)O (stereo not drawn) [Example 4, [6-(5-{3-Cyano-4-[(1-methylethyl)oxy]phenyl}-1,2,4-oxadiazol-3-yl)-5-methyl-1,2,3,4-tetrahydro-1-isoquinolinyl]acetic acid trifluoroacetate] | < 5.00 | – | –
Cc1c(-c2noc(-c3ccc(OC(C)C)c(C#N)c3)n2)ccc2c1CCNC2CCCC(=O)O (stereo not drawn) [Example 6, 4-[6-(5-{3-Cyano-4-[(1-methylethyl)oxy]phenyl}-1,2,4-oxadiazol-3-yl)-5-methyl-1,2,3,4-tetrahydro-1-isoquinolinyl]butanoic acid trifluoroacetate] | < 5.00 | – | –
Cc1c(-c2noc(-c3ccc(OC(C)C)c(Cl)c3)n2)ccc2c1CCNC2CC(=O)O (stereo not drawn) [Example 3, [6-(5-{3-Chloro-4-[(1-methylethyl)oxy]phenyl}-1,2,4-oxadiazol-3-yl)-5-methyl-1,2,3,4-tetrahydro-1-isoquinolinyl]acetic acid trifluoroacetate] | < 5.00 | – | –
CCCCCCCCc1ccc(CCC(N)(CO)CO)cc1 [FTY720] | – | reduce circulating lymphocytes | results in bradycardia in the first 24 hours of treatment
Cc1c(-c2noc(-c3ccc(OC(C)C)c(Cl)c3)n2)ccc2c1CCNC2CCCC(=O)O (stereo not drawn) [Example 5, 4-[6-(5-{3-Chloro-4-[(1-methylethyl)oxy]phenyl}-1,2,4-oxadiazol-3-yl)-5-methyl-1,2,3,4-tetrahydro-1-isoquinolinyl]butanoic acid trifluoroacetate] | < 5.00 | – | –
